From patent US20230303539A1, “IMMUNOREGULATORY COMPOUND AND ANTITUMOR APPLICATION THEREOF” (SHANGHAITECH UNIVERSITY, priority 2020, published 2023) come the findings set out here.

Type in all cases: cell-based
Assay [1] has as its system multiple myeloma cancer cells MM.1S. The experiment in a line: Cell proliferation inhibition (cell viability, CCK-8) in MM.1S. The following applies: Homo sapiens, MM1.S; MM.1S cells, 72 h treatment, CCK-8 cell viability. An excerpt:
(§1) The tested cell lines used were: Multiple myeloma cell line MM.1S, human Burkitt's lymphoma cell line Daudi, human acute promyelocytic leukemia cell line NB4, human mantle cell lymphoma cell line JEKO-1, human B-cell lymphoma cell line SU-DHL-4, human mantle cell lymphoma cell line Mino, human diffuse large B-cell lymphoma cell line TMD8, human B-cell lymphoma cell line DOHH2, PBMCs cell and human diffuse large B-cell lymphoma cell line WSU-DLCL2, which were purchased from ATCC (American type Culture Collection) or Cell Bank/Stem Cell Bank, Chinese Academy of Sciences. The medium was RPMI1640 supplemented with 10% FBS (fetal calf serum) and 1% Penicillin-Streptomycin. The cells used were identified as correct cells by STR cells, and were negative for mycoplasma through routine inspections.
(§2) IC50 values of the compounds of the present disclosure (including the compounds in Table 1 and compounds of examples 1-23) were measured using Cell Titer Blue, Cell Titer GLO, or WST reagent from Promega Company. Assay details are as follows: Cells were seeded in 100 μL RPMI1640 medium containing serum at a density of 15,000 cells/well. After 24 h, the inoculated cells were treated with diluted commercial inhibitor and the compounds of the present disclosure to be tested after serial dilution. After the cells were treated with the compounds of the present disclosure to be tested for 72 h, cell viability was determined after adding the cell viability detection kit listed above according to the reagent operating instructions. The negative control was DMSO, and the positive control was a commercial inhibitor, both of which were used to treat the cells through the same method as that of the compounds of the present disclosure. The growth inhibition of the compounds of the present disclosure on cells was plotted by Prism Graphpad software, and the IC50 values of the compounds of the present disclosure were calculated therefrom.
(§3) We tested the activities of the compounds of the present invention (including the compounds in Table 1 and Examples 1-23 compounds) in multiple myeloma cancer cells MM.1S cell and B lymphoma cells Daudi through a dose-dependent manner. The cells were treated with the compounds of the present invention at 10 different successively decreasing concentrations (starting at the highest concentration of […]; 5-fold serial dilutions) for 72 h, and then the cell viability determination was performed in accordance with CCK-8 reagent operating instructions.

In a further assay the test system is B lymphoma cells Daudi. The experiment in a line: Cell proliferation inhibition (cell viability, CCK-8) in Daudi. The following applies: Homo sapiens, 72 h treatment, CCK-8 cell viability.
Excerpt: as §1, §2, §3

The subject of the next assay is TNF-α. The experiment in a line: TNF-α inhibition in LPS-stimulated PBMC cells (ELISA). The following applies: LPS 1 ng/ml, 18-20 h, FIG. 2. The protocol: PBMC cells were cultured at 37° C. in 5% CO2 atmosphere, and then seeded in 96-well plates at […]. […] Cells were incubated in medium with or without compounds for 1 h, then stimulated with lipopolysaccharide (LPS; 1 ng/ml), and continually cultured for 18-20 h. Then, the supernatant was collected, diluted with serum-free medium, and tested for TNF-α level by ELISA kit. IC50 was then calculated by Graphpad Prism 7.0. Down-regulation of TNF-α expression is an important way of anti-tumor effect of immunomodulators.
Background: In an ELISA, binding on a coated surface is turned into a signal by an enzyme label.

The test system of assay [2] is human mantle cell lymphoma cell line Mino. The experiment in a line: Cell proliferation inhibition (CCK-8) in Mino. The following applies: MINO cells, 72 h treatment, read-out: IC50 (half inhibitory concentration) in tumor cells, MINO.
Excerpt: as §1, with “The cells used were identified as correct cells by STR cells, and were negative for mycoplasma through routine inspections.” left out
(§4) IC50 values of the compounds of the present disclosure (including the compounds in Table 1 and compounds of examples 1-23) were measured using Cell Titer Blue, Cell Titer GLO, or WST reagent from Promega Company. […] After the cells were treated with the compounds of the present disclosure to be tested for 72 h, cell viability was determined after adding the cell viability detection kit listed above according to the reagent operating instructions. […] The growth inhibition of the compounds of the present disclosure on cells was plotted by Prism Graphpad software, and the IC50 values of the compounds of the present disclosure were calculated therefrom. […]

Assay [3] relates to human diffuse large B-cell lymphoma cell line WSU-DLCL2. Nature of the assay: Cell proliferation inhibition (CCK-8) in WSU-DLCL2. Conditions: WSUDLCL2, WSU-DLCL2 cells, 72 h treatment, read-out: IC50 (half inhibitory concentration) in tumor cells, WSU-DLCL2.
Excerpt: as §1, with “The cells used were identified as correct cells by STR cells, and were negative for mycoplasma through routine inspections.” left out
as §4

In assay [4] the test system is human B-cell lymphoma cell line DOHH2. Nature of the assay: Cell proliferation inhibition (CCK-8) in DOHH2. The following applies: DOHH-2, DOHH2 cells, 72 h treatment, read-out: IC50 (half inhibitory concentration) in tumor cells, DOHH2.
Excerpt: as §1, with “The cells used were identified as correct cells by STR cells, and were negative for mycoplasma through routine inspections.” left out
as §4

Assay [5] has as its system human diffuse large B-cell lymphoma cell line TMD8. The experiment in a line: Cell proliferation inhibition (CCK-8) in TMD8. Conditions: TMD8 cells, 72 h treatment, read-out: IC50 (half inhibitory concentration) in tumor cells, TMD8.
Excerpt: as §1, with “The cells used were identified as correct cells by STR cells, and were negative for mycoplasma through routine inspections.” left out
as §4

Consider `Cc1nc2cccc(NCc3ccc(CNC45CC6CC(CC(C6)C4)C5)cc3)c2c(=O)n1C1CCC(=O)NC1=O` [SIAIS264156, 3-(5-((4-(((1R,3R,5S)-adamantan-1-ylamino)methyl)benzyl)amino)-2-methyl-4-oxoquinazolin-3(4H)-yl)piperidine-2,6-dione], for which the IC50 in assay [1] was determined as 9.64 ± 0.83 nM; in the assay with B lymphoma cells Daudi it was 44.8 ± 19.6 nM.

`Cc1nc2cccc(NCc3ccc(CNC45CC6CC(CC(C6)C4)C5)cn3)c2c(=O)n1C1CCC(=O)NC1=O` (stereo not drawn) [SIAIS355068, 3-(5-(((5-(((adamantan-1-yl)amino)methyl)pyridin-2-yl)methyl)amino)-2-methyl-4-oxoquinazolin-3(4H)-yl)piperidine-2,6-dione]: the IC50 in assay [1] was 37.7 ± 12.1 nM; with B lymphoma cells Daudi it was 139 ± 22 nM.

Take `Cc1nc2cccc(NCC3CCC(C(=O)NC45CC6CC(CC(C6)C4)C5)CC3)c2c(=O)n1C1CCC(=O)NC1=O` (stereo not drawn) [SIAIS313068, N-((3s,5s,7s)-adamantan-1-yl)-4-(((3-(2,6-dioxopiperidin-3-yl)-2-methyl-4-oxo-3,4-dihydroquinazolin-5-yl)amino)methyl)cyclohexanecarboxamide]: the IC50 in assay [1] stood at 83.7 ± 2.79 nM; in the assay on B lymphoma cells Daudi it was 492 ± 33.2 nM.

For the molecule `Cc1nc2cccc(NCc3ccc(CN4CCSCC4)cc3)c2c(=O)n1C1CCC(=O)NC1=O` (stereo not drawn) [SIAIS313074, 3-(2-methyl-4-oxo-5-((4-(thiomorpholinomethyl)benzyl)amino)quinazolin-3(4H)-yl)piperidine-2,6-dione], the IC50 in assay [1] stood at 10.6 ± 1.95 nM; in the assay with B lymphoma cells Daudi, 58.7 ± 22.4 nM. In addition, the “inhibition of the level of TNF-α (in words)” value (“inhibition” for short) in the assay with TNF-α is on record as “better inhibitory activities than CC-122”.

Regarding `Cc1nc2cccc(NCc3ccc(CNC45CC6CC(CC(C6)C4)C5)cc3F)c2c(=O)n1C1CCC(=O)NC1=O` (stereo not drawn) [SIAIS355049, 3-(5-((4-((adamantan-1-ylamino)methyl)-2-fluorobenzyl)amino)-2-methyl-4-oxoquinazolin-3(4H)-yl)piperidine-2,6-dione], the IC50 came to 5.61 ± 2.41 nM in assay [1] and 82.9 ± 25.9 nM in the assay on B lymphoma cells Daudi.

`Cc1nc2cccc(NCCc3ccccc3)c2c(=O)n1C1CCC(=O)NC1=O` (stereo not drawn) [SIAIS264103, 3-(2-methyl-4-oxo-5-(phenethylamino)quinazolin-3(4H)-yl)piperidine-2,6-dione]: the IC50 worked out at 87.3 ± 5.18 nM in assay [1] and 826 ± 37.3 nM in the assay with B lymphoma cells Daudi.

For `Cc1nc2cccc(NCc3ccc(CN4CCCCCC4)cc3)c2c(=O)n1C1CCC(=O)NC1=O` (stereo not drawn) [SIAIS313087, 3-(5-((4-(azepan-1-ylmethyl)benzyl)amino)-2-methyl-4-oxoquinazolin-3(4H)-yl)piperidine-2,6-dione], the IC50 was 4.82 ± 2.36 nM in assay [1] and 43.5 ± 17.9 nM in the assay with B lymphoma cells Daudi. Besides, in the assay with TNF-α, the “inhibition” value was “better inhibitory activities than CC-122”.

Take `Cc1nc2cccc(NCc3ccc(CO)cc3)c2c(=O)n1C1CCC(=O)NC1=O` (stereo not drawn) [SIAIS313055, 3-(5-((4-(hydroxymethyl)benzyl)amino)-2-methyl-4-oxoquinazolin-3(4H)-yl)piperidine-2,6-dione]: the results for the IC50 (in assay [1]; in the assay with B lymphoma cells Daudi) were 36.4 ± 6.74 nM and 166 ± 14.7 nM, respectively.

With `Cc1nc2cccc(NCc3ccc4c(c3)OCO4)c2c(=O)n1C1CCC(=O)NC1=O` (stereo not drawn) [SIAIS264177, 3-(5-((benzo[d][1,3]dioxol-5-ylmethyl)amino)-2-methyl-4-oxoquinazolin-3(4H)-yl)piperidine-2,6-dione], the IC50 was 34.7 ± 5.29 nM in assay [1] and 222 ± 40.9 nM with B lymphoma cells Daudi.

Regarding `Cc1nc2cccc(NCc3ccc(CN4CCOCC4)cc3)c2c(=O)n1C1CCC(=O)NC1=O` (stereo not drawn) [SIAIS264067, 3-(2-methyl-5-((4-(morpholinomethyl)benzyl)amino)-4-oxoquinazolin-3(4H)-yl)piperidine-2,6-dione], the figures for the IC50 (in assay [1]; in the assay with B lymphoma cells Daudi) were 8.59 ± 1.32 nM and 54.6 ± 7.35 nM, respectively. Further, the “inhibition” value in the assay on TNF-α is on record as “better inhibitory activities than CC-122”.

Consider `Cc1nc2cccc(NCc3ccc(CN4CC(C)CC(C)C4)cc3)c2c(=O)n1C1CCC(=O)NC1=O` (stereo not drawn) [SIAIS313075, 3-(5-((4-((3,5-dimethylpiperidin-1-yl)methyl)benzyl)amino)-2-methyl-4-oxoquinazolin-3(4H)-yl)piperidine-2,6-dione], for which the IC50 stood at 16.4 ± 2.82 nM in assay [1] and 131 ± 27.6 nM in the assay on B lymphoma cells Daudi.

On to `Cc1nc2cccc(NCc3ccc(CNC4C5CC6CC(C5)CC4C6)cc3)c2c(=O)n1C1CCC(=O)NC1=O` [SIAIS264172, 3-(5-((4-(((1R,2s,3S,5r)-adamantan-2-ylamino)methyl)benzyl)amino)-2-methyl-4-oxoquinazolin-3(4H)-yl)piperidine-2,6-dione], for which the IC50 in assay [1] is 2.52 ± 0.68 nM.

In the case of `Cc1nc2cccc(NCc3ccc(CN4CCCCC4)cc3)c2c(=O)n1C1CCC(=O)NC1=O` (stereo not drawn) [SIAIS313069, 3-(2-methyl-4-oxo-5-((4-(piperidin-1-ylmethyl)benzyl)amino)quinazolin-3(4H)-yl)piperidine-2,6-dione], the IC50 in assay [1] is 21.5 ± 5.84 nM; with B lymphoma cells Daudi, 129 ± 18.8 nM.

On to `Cc1nc2cccc(N)c2c(=O)n1C1CCC(=O)NC1=O` (stereo not drawn) [CC-122, Avadomide, reference compound], for which the IC50 in assay [1] is 21.8 ± 4.3 nM; in the assay with B lymphoma cells Daudi, 158 ± 9.48 nM; in assay [2], 55 nM; in assay [3], > 1000 nM; in assay [4] it was > 1000 nM; in assay [5], 492 nM. Also, in the assay with TNF-α, the “inhibition” value is given as “the level of TNF-α was inhibited in a dose-dependent manner”.

As to `Cc1nc2cccc(NCc3ccc(CN4CCCCCC4)cn3)c2c(=O)n1C1CCC(=O)NC1=O` (stereo not drawn) [SIAIS355062, 3-(5-(((5-(azepan-1-ylmethyl)pyridin-2-yl)methyl)amino)-2-methyl-4-oxoquinazolin-3(4H)-yl)piperidine-2,6-dione], the IC50 in assay [1] stood at 22.1 ± 12 nM; in the assay with B lymphoma cells Daudi, 105 ± 19.9 nM.

As to `Cc1nc2cccc(NCc3ccccc3F)c2c(=O)n1C1CCC(=O)NC1=O` (stereo not drawn) [SIAIS264123, 3-(5-((2-fluorobenzyl)amino)-2-methyl-4-oxoquinazolin-3(4H)-yl)piperidine-2,6-dione], the IC50 was 57.5 ± 11.5 nM in assay [1] and 322 ± 22.1 nM in the assay with B lymphoma cells Daudi.
